The text below walks through data of patent publication EP1541559A1, “5-SUBSTITUTED ISOQUINOLINE DERIVATIVE” (Asahi Kasei Pharma Corporation, priority 2002, dated 2004).

Assay [1] deals with myosin regulatory light chain. As to the kind of experiment: Action on amount of phosphorylated myosin regulatory light chain in the cells (Test Example 1). Type of assay: cell-based, human. Particulars: neutrophils of healthy volunteers, reaction with test compound at 25°C for 5 minutes, read-out: Inhibition of myosin regulatory light chain phosphorylation (IC50: µM). An outline of the steps:
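Neutrophil suspension (5 x 10^6/ml, HBSS) reacted 5 min at 25 °C with test compound at various concentrations. TCA-stopped, urea-extracted and run on SDS-PAGE, then immunoblotted with antibody specific for phosphorylated myosin regulatory light chain, detected by HRP/ECL and quantified by densitometry. Result given as % inhibition of phosphorylation.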

The subject of assay [2] is ovalbumin-immunized guinea pigs. Description: Respiratory tract constriction suppression action, ovalbumin-induced (Test Example 3). The format is in vivo, Hartley guinea pigs. The note with it: result in words; test medicament given into hind leg vein after induction with 0.3 mg/kg ovalbumin, measured for 15 minutes. As to the method:
Four-week old Hartley guinea pigs (male) were immunized by intraperitoneal administration of ovalbumin (Sigma, Grade V) in amounts of 1 mg for each animal on the day on which the experiment was started, 3 mg for each animal after 2 days, and 10 mg for each animal after 4 days. Twelve to fourteen days after the final immunization, the ovalbumin-immunized guinea pigs were anesthetized by intraperitoneal administration of about 40 mg/kg of pentobarbital (Somnopentyl), and the tracheas were taken out. Subsequently, a cannula (SP-110, Natsume) was inserted into each trachea, and one end of the cannula was connected to an artificial respirator (Model-b83, Harvard). The aeration conditions were set at 6 ml per kilogram and 60 times per 1 minute. Further, a cannula for medicament administration (JMS wing needle 23G 3/4) was inserted into a hind leg vein. Myoblock (Organon Technica) was administered in an amount of 0.5 mg/kg from the cannula inserted into the hind leg vein to stop the spontaneous breathing, and after 2 or 3 minutes, 0.3 mg/kg of ovalbumin was administered to induce constriction of respiratory tract. The increase of airway resistance value 2 minutes after the induction (measurement apparatuses: pressure transducer TR-603T, respiratory amplifier AR-601G, and recorder RTA-3100, Nihon Kohden Corp.) was confirmed to be above 80 cm H2O or higher, and then, a solution of a test medicament was administered from the cannula inserted into the hind leg vein, and the airway resistance value was continuously measured for 15 minutes after the administration to determine the effect.

Assay [3] has as its system Japanese white rabbit. As to the kind of experiment: Intraocular pressure reducing action (Test Example 4). Type of assay: in vivo. Particulars: Oryctolagus cuniculus, topical; 50 µl of test compound (1% aqueous solution) dropped to the left eye, after 2 hours; read-out: Intraocular pressure reducing action (reduction ratio) (%). As to the method:
A Japanese white rabbit having a body weight of about 2 kg was placed in a positioner and naturalized for one week before the experiment. An ophthalmologic local […] (Benoxil) was administered to the left eye, and then intraocular pressure was measured by using a tonometer (Classic 30, Solan). The initial value of the intraocular pressure was measured, then 50 μl of a test compound (1% aqueous solution) was dropped to the left eye, and after 2 hours, the intraocular pressure was measured. The intraocular pressure reducing action of the test compounds is shown in Table 7 mentioned below as ratios (%) of reduction of intraocular pressure based on the initial value of the intraocular pressure.

Assay [4] has as its system Neutrophils. Description: Neutrophil migration inhibitory action, Boyden Chamber, FMLP (Test Example 5). Type of assay: cell-based, human. Particulars: Homo sapiens, Neutrophil, 0.5 h, FMLP (1 µM), migration at 37°C for 30 minutes; read-out: Neutrophil migration inhibition IC50. An outline of the steps:
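Neutrophils from healthy donors' peripheral blood (8 x 10^6/ml) were preincubated 5 min at room temperature with compound. Migrated cells were stained and absorbance read at 595 nm; inhibition (%) was calculated against compound-free wells.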

The test system of assay [5] is myosin light chain phosphorylation enzyme (MLCK). As to the kind of experiment: Action on myosin light chain phosphorylation enzyme (MLCK) activity, ELISA (second Test Example 7). Type of assay: biochemical, chicken. The note with it: result in words. The method, then:
A myosin light chain phosphorylation enzyme (MLCK) was purified from chicken gizzard smooth muscle by a conventional method (Yoshida, M., et al., J. Biochem., 99, 1027-1036 (1986)). The myosin regulatory light chain as a substrate was purified from the chicken gizzard smooth muscle by a conventional method (Grand, R. J., et al., Biochem. J., 211, 267-272 (1983)). The MLCK activity was measured by ELISA using pLC1 described in Test Example 1 (Sakurada, K., et al., J. Biochem., 115, 18-21 (1994)). […] In a volume of 100 µ1 each of 20% aqueous phosphoric acid solution was added to each well to terminate the enzymatic reaction. Each well was washed with 25 mM Tris/HCl buffer (TTBS) containing 0.1% Tween 20, and then 100 µl each of pLC1 described in Test Example 1 was added to each well and incubated at room temperature for 90 minutes. Each well was washed with TTBS, and then 100 µl of the HRP-labeled rabbit anti-mouse IgG antibodies (Bio-Rad) were added to each well and incubated at room temperature for 90 minutes. […] 50 µl of 4 N sulfuric acid was added to each well to terminate the reaction, and then absorbance was measured by using an immunoplate reader (Bio-Rad).

For assay [6], the system named is thoracic aorta. As to the kind of experiment: Vasoconstriction inhibitory action on aorta rings constricted with phenylephrine (Test Example 2). Also on record: species or system Rats (Wistar, 11-week old). The note with it: aorta constricted with phenylephrine (1 µM); for inhibition at 1 µM: Rattus norvegicus, test compound 1 µM, read-out: Vasoconstriction inhibitory action (relaxation ratio) (%). An excerpt:
Rats (Wistar, 11-week old) were bleeded to death and laparotomized to take out the thoracic aorta.

Assay [7] concerns BALB/c female mice. Description: Respiratory tract inflammation suppressing action, OVA-induced (Test Example 6). Type of assay: in vivo. The note with it: orally 30 mg/kg once a day for 5 days; inhalation of 2% OVA; alveoli washed after 24 hours. The method, then: According to the method described in Henderson, W.R., et al., Am. J. Respir. Cric. Care Med., 165(1), 108-116 (2002), suppressing action on bronchial inflammation was confirmed. BALB/c female mice (7-week old) were used for the test, each group consisting of 7 mice, and the control group consisting of 11 or 12 mice. The mice were intraperitoneally administered with ovalbumin (OVA, 100 ng, Sigma) and 1 mg of aluminum hydroxide for initial immunization, and after 2 weeks, they are subcutaneously administered with 10 ng of OVA as additional immunization. After further 1 week, a test compound was dissolved in water containing 0.5% carboxymethylcellulose and orally administered (30 mg/kg) to the test animals once a day for 5 days. The control group was similarly given only with water containing 0.5% carboxymethylcellulose. After 1 hour, the mice were orally inhaled with 2% OVA for 10 minutes to induce a respiratory tract inflammation. Further, the control group, in which the mice were not given with the test compound, was divided into a positive control group (n = 7), in which the mice were inhaled with 2% OVA to induce the reaction, and a negative control group (n = 4 or 5), in which the mice were similarly inhaled with physiological saline. After 24 hours, alveoli in the lungs of the test animals were washed with physiological saline, and the total infiltrated white blood cells (WBC) were counted.

Assay [8] has as its system human neutrophil fraction. Description: Action on increase of intracellular calcium concentration, Fura2-AM, fMLP (Test Example 7). The note with it: test compound 1 µM added 3 minutes before fMLP (1 µM), R = F340/F380, without test compound = 100%, read-out: Maximum R value (%). The format is cell-based. The method, then:
According to the method described in Test Example 1, a neutrophil containing fraction was prepared. Fura2-AM (Sigma) at a final concentration of 3 µM was added to the human neutrophil fraction and the mixture was incubated at 37°C for 1 hour. After centrifugation (250 g for 5 minutes), the supernatant was discarded, and the neutrophils were resuspended in Hanks' Balanced Salt Solution (HBSS, Gibco) to prepare a cell suspension (8 x 10^6/ml) for measurement of intracellular calcium concentration. The cell suspension for measurement of intracellular calcium concentration was left stand at room temperature for 30 minutes. Then, 490 µl of the cell suspension for measurement of intracellular calcium concentration was placed in a cuvette, 10 µl of calcium chloride solution at a final concentration of […] was added to it and the cuvette was set in an intracellular calcium concentration analyzer (CAF110, Nippon Bunko). fMLP (Sigma) solution at a final concentration of 1 µM was added to the cell suspension, and F340 and F380, which are fluorescence intensity at 340 nm and 380 nm, respectively, were measured to obtain an R value (F340/F380) as an index of the intracellular calcium concentration. A test compound (1 µM) was added 3 minutes before the addition of fMLP, and the action on the intracellular calcium concentration was observed. The ratios of the maximum R value obtained with addition of each test compound, based on the maximum R value obtained without addition of test compound and taken as 100%, are shown in Table 10 mentioned below.

The mark [9] stands for this setting: Homo sapiens, Neutrophil, 5 min.

Structures can show the parent of a compound that is named as a salt. Where two headings read alike, the source gives them in different places. Bounds are passed on as bounds.

With `c1cc(NC2CCCNC2)c2ccncc2c1` (racemic) [Example 29, 3-N-(5-Isoquinolyl)aminopiperidine hydrochloride], the IC50 in assay [1] (setting [9]) was at most 40 µM; in assay [1] (hydrochloride) it was at most 20 µM; in assay [4], at most 40 µM. Also, the “constriction of respiratory tract (airway resistance value)” value in assay [2] is reported as “significantly improved the constriction of respiratory tract”. Besides, the inhibition in vivo at 1 % in assay [3] was found to be 18.8%. The “inhibition of MLCK” value in assay [5] is on record as “did not inhibit MLCK”.
Take `Cl.NCCCN(CCCc1ccccc1)S(=O)(=O)c1cccc2cnccc12` [Example 1, N-[(5-Isoquinolyl)sulfonyl]-N-(3-phenylpropyl)-1,3-propylenediamine hydrochloride]: the IC50 is 0.8 µM in assay [1] (setting [9]) and at most 1 µM in assay [4]. Further, the inhibition at 1 µM in assay [6] was found to be 73.8%. Further, the “Total WBC count x 10E5/ml/mouse” value in assay [7] turned out to be 300 x 10E5/ml/mouse. In assay [8], the activity at 1 µM amounted to 98%.
Take `Cl.NCCCN(CCc1cccs1)S(=O)(=O)c1cccc2cnccc12` [Example 2, N-[(5-Isoquinolyl)sulfonyl]-N-[2-(2-thienyl)ethyl]-1,3-propylenediamine hydrochloride]: the figures for the IC50 in assay [1] (setting [9]) and in assay [4] were 0.8 µM and 1 to 10 µM, respectively. The vasoconstriction inhibitory action entry in assay [6] (result in words) is on record as “significant vasoconstriction inhibitory action”. In assay [2], the “constriction of respiratory tract (airway resistance value)” value is recorded as “significantly improved the constriction of respiratory tract”. In addition, the “Total WBC count x 10E5/ml/mouse” value in assay [7] was determined as 200 x 10E5/ml/mouse. Also, in assay [8], the activity at 1 µM is 99%.
With `Cl.NCCN(CCS(=O)(=O)c1ccccc1)S(=O)(=O)c1cccc2cnccc12` [Example 7, N-[(5-Isoquinolyl)sulfonyl]-N-[2-(phenylsulfonyl)ethyl]ethylenediamine hydrochloride], the IC50 in assay [1] (setting [9]) was 30 µM. Moreover, the inhibition at 1 µM in assay [6] turned out to be 64.3%. For the same molecule, the “Total WBC count x 10E5/ml/mouse” value in assay [7] is recorded as 400 x 10E5/ml/mouse. In addition, in assay [8], the activity at 1 µM came to 101%.
As for `Cl.NCCCOc1cccc2c(N)nccc12` [Example 10, 3-[(1-Amino-5-isoquinolyl)oxy]propylamine hydrochloride], the IC50 in assay [1] (setting [9]) is 10 µM; in assay [4], 1 to 10 µM. Also, the “Total WBC count x 10E5/ml/mouse” value in assay [7] is listed as 150 x 10E5/ml/mouse. The activity at 1 µM in assay [8] came to 99%.
